The results in this text go back to patent publication US10414811B2, “Protease-resistant lipidated GLP-1 analogs” (MEDIMMUNE LIMITED, priority 2015, dated 2019).

As usually defined, the EC50 is the midpoint of the concentration-response curve.

Type in all cases: cell-based
Conditions in all cases: tris-lipidated peptides

Test [1] concerns the target T1, human glucose-dependent insulinotropic peptide receptor (GIPR) (Homo sapiens, UniProt P48546).
T1 construct: expressed in transfected cells
T1 sequence (P48546 22-466): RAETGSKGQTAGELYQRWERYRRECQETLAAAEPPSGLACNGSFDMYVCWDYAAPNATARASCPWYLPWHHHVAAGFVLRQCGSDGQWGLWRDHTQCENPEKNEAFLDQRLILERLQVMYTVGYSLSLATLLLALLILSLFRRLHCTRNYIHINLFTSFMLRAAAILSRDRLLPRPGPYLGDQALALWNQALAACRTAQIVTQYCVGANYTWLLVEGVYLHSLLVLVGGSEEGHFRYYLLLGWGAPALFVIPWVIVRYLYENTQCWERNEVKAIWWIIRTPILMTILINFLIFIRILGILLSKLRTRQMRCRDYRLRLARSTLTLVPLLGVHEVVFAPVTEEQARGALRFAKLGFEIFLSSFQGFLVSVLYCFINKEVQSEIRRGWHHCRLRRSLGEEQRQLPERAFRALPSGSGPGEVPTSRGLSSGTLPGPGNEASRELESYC
Briefly: cAMP assay, human GIPR cells. In a few lines: (§1)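 Peptide-stimulated cAMP measured by two-step HTRF after a 30 min room-temperature incubation with receptor-expressing cells (hGLP-1R, hGIPR at 1×10^5 cells/ml; hGCGR at 2×10^5 cells/ml). Duplicate dilutions; EC50 from 4-parameter logistic fit of % Delta F.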
Background: Cyclic AMP is a second messenger, typically raised through Gs and lowered through Gi signalling.

In test [2] the target is T2, human glucagon receptor (GCGR) (Homo sapiens, UniProt P47871).
T2 construct: expressed in transfected cells
The experiment in a line: cAMP assay, human GCGR cells. The method in brief: as §1

Test [3] deals with T3, human GLP-1 receptor (GLP-1R) (Homo sapiens, UniProt P43220).
T3 construct: expressed in transfected cells
The experiment in a line: cAMP assay, human GLP-1R cells. The method in brief: as §1

[4] abbreviates: second replicate, read-out: Primary assay EC50 GIP-R (n2).
The mark [5] stands for this setting: second replicate, read-out: Primary assay EC50 Gluc-R (n2).
Setting [6] is: mean of n1 and n2, read-out: Primary assay EC50 Mean pM GLP-1R.
[7] abbreviates: replicate n1, read-out: Primary assay EC50 GLP-1R n1.
Setting [8] is: replicate n2, read-out: Primary assay EC50 GLP-1R n2.
Where [9] appears, read: first replicate, read-out: Primary assay EC50 GIP-R (n1).

SMILES strings stand for the structures. Read-outs that look alike come from different tables or passages of the source. Numbered stars: 1 amine (or outer) side, 2 acyl side, 3 side chain; on linkers, the order of the positions; unused ones are H or OH. Square brackets hold non-standard residues; d marks the D form. Side chains are listed from the residue outwards. Peptide text beside a SMILES is read from it. * marks the point of attachment. γGlu = O=C(O)[C@H](CCC(=O)[*:2])N[*:1]; αMeF = C[C@](N)(Cc1ccccc1)C(=O)O; αMeK = C[C@](N)(CCCCN)C(=O)O; Lauroyl = CCCCCCCCCCCC(=O)*; αMeS = C[C@](N)(CO)C(=O)O; AEEA = NCCOCCOCC(=O)O; Aib = CC(C)(N)C(=O)O

T2 sequence (P47871 26-477): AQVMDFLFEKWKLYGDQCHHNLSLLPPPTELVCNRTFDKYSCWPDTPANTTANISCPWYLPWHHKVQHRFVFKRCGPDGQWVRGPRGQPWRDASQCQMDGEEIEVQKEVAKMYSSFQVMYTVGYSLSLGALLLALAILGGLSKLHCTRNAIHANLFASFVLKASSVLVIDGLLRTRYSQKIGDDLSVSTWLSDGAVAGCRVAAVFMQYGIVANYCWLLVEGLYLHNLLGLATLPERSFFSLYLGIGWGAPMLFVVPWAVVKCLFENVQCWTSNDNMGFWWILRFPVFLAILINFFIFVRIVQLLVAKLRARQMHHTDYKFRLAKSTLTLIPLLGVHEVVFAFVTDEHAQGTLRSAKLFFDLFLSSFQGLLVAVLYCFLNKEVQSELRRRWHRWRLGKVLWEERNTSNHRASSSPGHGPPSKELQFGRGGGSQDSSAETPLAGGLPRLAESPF
T3 sequence (P43220 24-463): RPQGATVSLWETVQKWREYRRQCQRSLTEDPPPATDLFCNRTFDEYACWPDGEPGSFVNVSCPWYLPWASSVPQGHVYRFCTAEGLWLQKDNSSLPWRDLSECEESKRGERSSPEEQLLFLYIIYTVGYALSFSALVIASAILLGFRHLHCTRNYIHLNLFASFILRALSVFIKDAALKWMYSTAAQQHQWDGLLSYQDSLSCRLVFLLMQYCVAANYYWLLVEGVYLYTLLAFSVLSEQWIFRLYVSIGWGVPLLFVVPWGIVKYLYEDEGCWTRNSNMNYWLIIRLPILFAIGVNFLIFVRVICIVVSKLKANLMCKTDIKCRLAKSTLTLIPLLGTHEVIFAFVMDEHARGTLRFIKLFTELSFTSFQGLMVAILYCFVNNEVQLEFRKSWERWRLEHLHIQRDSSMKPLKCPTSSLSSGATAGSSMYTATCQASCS

In the case of `CCCCCCCCCCCC(=O)N[C@@H](CCC(=O)NCCOCCOCC(=O)NCCOCCOCC(=O)NCCCC[C@H](NC(=O)CNC(=O)[C@H](CCC(=O)O)NC(=O)[C@H](CCCCNC(=O)COCCOCCNC(=O)COCCOCCNC(=O)CC[C@H](NC(=O)CCCCCCCCCCC)C(=O)O)NC(=O)[C@H](Cc1ccc(O)cc1)NC(=O)[C@H](CO)NC(=O)[C@](C)(CO)NC(=O)[C@@H](NC(=O)[C@H](CC(=O)O)NC(=O)[C@H](CO)NC(=O)[C@@H](NC(=O)[C@](C)(Cc1ccccc1)NC(=O)[C@H](CO)NC(=O)CNC(=O)[C@H](CCC(=O)O)NC(=O)C(C)(C)NC(=O)[C@@H](N)Cc1c[nH]cn1)[C@@H](C)O)C(C)C)C(=O)N[C@@H](C)C(=O)N[C@@H](C)C(=O)N[C@@](C)(CCCCN)C(=O)N[C@@H](CCC(=O)O)C(=O)N[C@@H](Cc1ccccc1)C(=O)N[C@H](C(=O)N[C@@H](CCCCNC(=O)COCCOCCNC(=O)COCCOCCNC(=O)CC[C@H](NC(=O)CCCCCCCCCCC)C(=O)O)C(=O)N[C@@H](Cc1ccccc1)C(=O)N[C@H](C(=O)N[C@H](C(=O)N[C@@H](CCC(=O)O)C(=O)NCC(=O)NCC(N)=O)C(C)C)C(C)C)[C@@H](C)CC)C(=O)O` [compound 452] (H-H[Aib]EGS[αMeF]TSDV[αMeS]SYK([AEEA-AEEA-γGlu-Lauroyl])EGK([AEEA-AEEA-γGlu-Lauroyl])AA[αMeK]EFIK([AEEA-AEEA-γGlu-Lauroyl])FVVEGG-NH2; N-terminus assumed), the EC50 in test [1] (setting [4]) is 19.7 nM; in test [2] (setting [5]), 19.7 nM; in test [3] (setting [6]), 80.9 pM; in test [3] (setting [7]) it was 85.7 pM; in test [3] (setting [8]), 76.1 pM.
In the case of `CCCCCCCCCCCC(=O)N[C@@H](CCC(=O)NCCOCCOCC(=O)NCCOCCOCC(=O)NCCCC[C@H](NC(=O)[C@H](CCC(=O)O)NC(=O)CNC(=O)[C@H](CCC(=O)O)NC(=O)[C@H](CCCCNC(=O)COCCOCCNC(=O)COCCOCCNC(=O)CC[C@H](NC(=O)CCCCCCCCCCC)C(=O)O)NC(=O)[C@H](Cc1ccc(O)cc1)NC(=O)[C@H](CO)NC(=O)[C@](C)(CO)NC(=O)[C@@H](NC(=O)[C@H](CC(=O)O)NC(=O)[C@H](CO)NC(=O)[C@@H](NC(=O)[C@](C)(Cc1ccccc1)NC(=O)[C@H](CO)NC(=O)CNC(=O)[C@H](CCC(=O)O)NC(=O)C(C)(C)NC(=O)[C@@H](N)Cc1c[nH]cn1)[C@@H](C)O)C(C)C)C(=O)N[C@@H](C)C(=O)N[C@@](C)(CCCCN)C(=O)N[C@@H](CCC(=O)O)C(=O)N[C@@H](Cc1ccccc1)C(=O)N[C@H](C(=O)N[C@@H](CCCCNC(=O)COCCOCCNC(=O)COCCOCCNC(=O)CC[C@H](NC(=O)CCCCCCCCCCC)C(=O)O)C(=O)N[C@@H](Cc1ccccc1)C(=O)N[C@H](C(=O)N[C@H](C(=O)N[C@@H](CCC(=O)O)C(=O)NCC(=O)NCC(N)=O)C(C)C)C(C)C)[C@@H](C)CC)C(=O)O` [compound 453] (H-H[Aib]EGS[αMeF]TSDV[αMeS]SYK([AEEA-AEEA-γGlu-Lauroyl])EGEK([AEEA-AEEA-γGlu-Lauroyl])A[αMeK]EFIK([AEEA-AEEA-γGlu-Lauroyl])FVVEGG-NH2), the EC50 in test [1] (setting [9]) stood at 19.5 nM; in test [2] (setting [5]), 19.5 nM; in test [3] (setting [6]), 114 pM; in test [3] (setting [7]), 62.9 pM; in test [3] (setting [8]), 165 pM.
Take `CCCCCCCCCCCC(=O)N[C@@H](CCC(=O)NCCOCCOCC(=O)NCCOCCOCC(=O)NCCCC[C@H](NC(=O)[C@H](C)NC(=O)[C@@H](NC(=O)[C@H](Cc1ccccc1)NC(=O)[C@H](CCC(=O)O)NC(=O)[C@](C)(CCCCN)NC(=O)[C@H](C)NC(=O)[C@H](CCCCNC(=O)COCCOCCNC(=O)COCCOCCNC(=O)CC[C@H](NC(=O)CCCCCCCCCCC)C(=O)O)NC(=O)[C@H](CCC(=O)O)NC(=O)CNC(=O)[C@H](CCC(=O)O)NC(=O)[C@H](CC(C)C)NC(=O)[C@H](CCCCNC(=O)COCCOCCNC(=O)COCCOCCNC(=O)CC[C@H](NC(=O)CCCCCCCCCCC)C(=O)O)NC(=O)[C@H](CO)NC(=O)[C@](C)(CO)NC(=O)[C@@H](NC(=O)[C@H](CC(=O)O)NC(=O)[C@H](CO)NC(=O)[C@@H](NC(=O)[C@](C)(Cc1ccccc1)NC(=O)[C@H](CO)NC(=O)CNC(=O)[C@H](CCC(=O)O)NC(=O)C(C)(C)NC(=O)[C@@H](N)Cc1c[nH]cn1)[C@@H](C)O)C(C)C)[C@@H](C)CC)C(=O)N[C@H](C(=O)N[C@H](C(=O)N[C@@H](CCC(=O)O)C(=O)NCC(=O)NCC(N)=O)C(C)C)C(C)C)C(=O)O` [compound 465] (H-H[Aib]EGS[αMeF]TSDV[αMeS]SK([AEEA-AEEA-γGlu-Lauroyl])LEGEK([AEEA-AEEA-γGlu-Lauroyl])A[αMeK]EFIAK([AEEA-AEEA-γGlu-Lauroyl])VVEGG-NH2): the EC50 in test [1] (setting [9]) amounted to 20 nM; in test [2] (first replicate, read-out: Primary assay EC50 Gluc-R (n1)) it was 20 nM; in test [3] (setting [6]) it was 117 pM; in test [3] (setting [7]) it was 101 pM; in test [3] (setting [8]), 133 pM.
As to `CCCCCCCCCCCC(=O)N[C@@H](CCC(=O)NCCOCCOCC(=O)NCCOCCOCC(=O)NCCCC[C@H](NC(=O)CNC(=O)[C@H](CCC(=O)O)NC(=O)[C@H](CCCCNC(=O)COCCOCCNC(=O)COCCOCCNC(=O)CC[C@H](NC(=O)CCCCCCCCCCC)C(=O)O)NC(=O)[C@H](Cc1ccc(O)cc1)NC(=O)[C@H](CO)NC(=O)[C@](C)(CO)NC(=O)[C@@H](NC(=O)[C@H](CC(=O)O)NC(=O)[C@H](CO)NC(=O)[C@@H](NC(=O)[C@](C)(Cc1ccccc1)NC(=O)[C@H](CO)NC(=O)CNC(=O)[C@H](CCC(=O)O)NC(=O)C(C)(C)NC(=O)[C@@H](N)Cc1c[nH]cn1)[C@@H](C)O)C(C)C)C(=O)N[C@@H](C)C(=O)N[C@@H](C)C(=O)N[C@@](C)(CCCCN)C(=O)N[C@@H](CCC(=O)O)C(=O)N[C@@H](Cc1ccccc1)C(=O)N[C@H](C(=O)N[C@@H](C)C(=O)N[C@@H](CCCCNC(=O)COCCOCCNC(=O)COCCOCCNC(=O)CC[C@H](NC(=O)CCCCCCCCCCC)C(=O)O)C(=O)N[C@H](C(=O)N[C@H](C(=O)N[C@@H](CCC(=O)O)C(=O)NCC(=O)NCC(N)=O)C(C)C)C(C)C)[C@@H](C)CC)C(=O)O` [compound 468] (H-H[Aib]EGS[αMeF]TSDV[αMeS]SYK([AEEA-AEEA-γGlu-Lauroyl])EGK([AEEA-AEEA-γGlu-Lauroyl])AA[αMeK]EFIAK([AEEA-AEEA-γGlu-Lauroyl])VVEGG-NH2), the EC50 in test [1] (setting [9]) came to 20 nM; in test [2] (setting [5]), 20 nM; in test [3] (setting [6]), 73.5 pM; in test [3] (setting [7]), 62.4 pM; in test [3] (setting [8]) it was 84.5 pM.
`CCCCCCCCCCCC(=O)N[C@@H](CCC(=O)NCCOCCOCC(=O)NCCOCCOCC(=O)NCCCC[C@H](NC(=O)[C@H](C)NC(=O)[C@@H](NC(=O)[C@H](Cc1ccccc1)NC(=O)[C@H](CCCCNC(=O)COCCOCCNC(=O)COCCOCCNC(=O)CC[C@H](NC(=O)CCCCCCCCCCC)C(=O)O)NC(=O)[C@](C)(CCCCN)NC(=O)[C@H](C)NC(=O)[C@H](C)NC(=O)[C@H](CCC(=O)O)NC(=O)CNC(=O)[C@H](CCC(=O)O)NC(=O)[C@H](CCCCNC(=O)COCCOCCNC(=O)COCCOCCNC(=O)CC[C@H](NC(=O)CCCCCCCCCCC)C(=O)O)NC(=O)[C@H](Cc1ccc(O)cc1)NC(=O)[C@H](CO)NC(=O)[C@](C)(CO)NC(=O)[C@@H](NC(=O)[C@H](CC(=O)O)NC(=O)[C@H](CO)NC(=O)[C@@H](NC(=O)[C@](C)(Cc1ccccc1)NC(=O)[C@H](CO)NC(=O)CNC(=O)[C@H](CCC(=O)O)NC(=O)C(C)(C)NC(=O)[C@@H](N)Cc1c[nH]cn1)[C@@H](C)O)C(C)C)[C@@H](C)CC)C(=O)N[C@H](C(=O)N[C@H](C(=O)N[C@@H](CCC(=O)O)C(=O)NCC(=O)NCC(N)=O)C(C)C)C(C)C)C(=O)O` [compound 470] (H-H[Aib]EGS[αMeF]TSDV[αMeS]SYK([AEEA-AEEA-γGlu-Lauroyl])EGEAA[αMeK]K([AEEA-AEEA-γGlu-Lauroyl])FIAK([AEEA-AEEA-γGlu-Lauroyl])VVEGG-NH2; N-terminus assumed): the EC50 worked out at 20 nM in test [1] (setting [4]); 20 nM in test [2] (setting [5]); 31.3 pM in test [3] (setting [6]); 26 pM in test [3] (setting [7]); 36.5 pM in test [3] (setting [8]).
